Results from article PMC6529438 (2019).
Values belong to the compound of their own block, whether it stands above or below them.

Tests used:
Assay in all cases: graphene oxide FRET fluorescence recovery with DNase I amplification
Conditions in all cases: 5 mM Mg2+, 15 mM Na+, 20 mM Tris-HCl, 0.001% PEG 900, pH 8.0
[1] = test system: FAM-modified kanamycin aptamer (P2) (DNA, aptamer) TGGGGGTTGAGGCTAAGCCGA
[2] = test system: Cy3-modified sulfadimethoxine aptamer (P1) (DNA, aptamer) GAGGGCAACGAGTGTTTATAGA
[3] = test system: Cy5-modified ampicillin aptamer (P3) (DNA, aptamer) GCGGGCGGTTGTATAGCGG
[4] = 10-500 ng/mL, room temperature, then 37 °C with DNase I
[5] = 500 ng/mL, mixed aptamers, very weak signal change

binding ([1]; 500 ng/mL, mixed aptamers, weak signal change only): weak
binding ([2]; 500 ng/mL, with kanamycin none, alone weak signal change): no
binding [3, 4]: yes
Structure (SMILES): CC1(C)S[C@@H]2[C@H](NC(=O)[C@H](N)c3ccccc3)C(=O)N2[C@H]1C(=O)O

binding [1, 5]: no
binding [2, 4]: yes
binding [3, 5]: no
Structure (SMILES): COc1cc(NS(=O)(=O)c2ccc(N)cc2)nc(OC)n1

binding [1, 4]: yes
binding ([2]; 500 ng/mL kanamycin with 500 ng/mL ampicillin, mixed aptamers): no
Structure (SMILES): NC[C@H]1O[C@H](O[C@H]2[C@H](O)[C@@H](O[C@H]3O[C@H](CO)[C@@H](O)[C@H](N)[C@H]3O)[C@H](N)C[C@@H]2N)[C@H](O)[C@@H](O)[C@@H]1O
